pIC50: −log10 of the molar value.
Columns and labels:
[1] = Apparent permeability of the compound from apical to basolateral side in human Caco-2 cells incubated for 2 hrs by LC-MS/MS analysis; details: caco-2, 2 h
[2] = target: T1, Branched-chain-amino-acid aminotransferase, mitochondrial (Homo sapiens, UniProt O15382); experiment: Inhibition of human recombinant BCAT2 using leucine and alpha-KG as substrate in presence of NADH by fluorescence assay
T1 sequence (O15382 whole entry): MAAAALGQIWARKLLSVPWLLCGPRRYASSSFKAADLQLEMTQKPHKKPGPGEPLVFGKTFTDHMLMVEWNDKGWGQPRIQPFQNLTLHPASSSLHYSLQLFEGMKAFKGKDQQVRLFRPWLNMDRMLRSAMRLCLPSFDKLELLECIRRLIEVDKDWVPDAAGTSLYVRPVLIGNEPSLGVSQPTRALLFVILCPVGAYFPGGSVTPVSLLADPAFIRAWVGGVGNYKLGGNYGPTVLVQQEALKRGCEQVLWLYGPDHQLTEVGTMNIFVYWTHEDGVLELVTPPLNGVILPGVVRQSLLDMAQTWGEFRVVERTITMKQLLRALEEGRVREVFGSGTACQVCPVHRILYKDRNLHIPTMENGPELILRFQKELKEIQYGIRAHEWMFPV

[3] = target: T2, Branched-chain-amino-acid aminotransferase, cytosolic (Homo sapiens, UniProt P54687); experiment: biochemical
T2 sequence (P54687 whole entry): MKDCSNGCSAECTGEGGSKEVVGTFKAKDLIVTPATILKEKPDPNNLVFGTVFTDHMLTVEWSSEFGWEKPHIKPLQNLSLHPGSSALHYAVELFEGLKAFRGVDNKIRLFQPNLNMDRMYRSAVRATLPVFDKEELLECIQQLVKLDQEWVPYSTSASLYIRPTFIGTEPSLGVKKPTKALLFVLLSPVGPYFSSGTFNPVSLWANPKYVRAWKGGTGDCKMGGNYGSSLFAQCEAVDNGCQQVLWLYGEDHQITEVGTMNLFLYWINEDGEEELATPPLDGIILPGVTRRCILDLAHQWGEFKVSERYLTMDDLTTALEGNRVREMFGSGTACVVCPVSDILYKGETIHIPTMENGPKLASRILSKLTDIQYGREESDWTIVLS
Description: Inhibition of N-terminal his-tagged human recombinant BCAT1 expressed in Escherichia coli BL21(DE3) cells using leucine and alpha-KG as substrate in presence of NADH by fluorescence assay

[4] = Upregulation of BCAA expression in human MDA-MB-231 cells; type: functional, cell-based
[5] = Lipophilicity, logD of compound at pH 7.5; type: physicochemical; details: buffer
[6] = Metabolic stability in Wistar Han rat hepatocyte assessed as blood clearance at 1 uM incubated upto 90 mins by LC-MS/MS analysis; type: ADME, cell-based; details: hepatocytes
[7] = Apparent permeability of the compound from basolateral to apical side in human Caco-2 cells incubated for 2 hrs by LC-MS/MS analysis; type: ADME, cell-based; details: caco-2, 2 h
[8] = Metabolic stability in human liver microsomes assessed as maximal oral bioavailability incubated upto 60 mins by LC-MS/MS analysis; type: ADME, Microsome
[9] = Metabolic stability in human liver microsomes assessed as blood clearance incubated upto 60 mins by LC-MS/MS analysis; type: ADME, Microsome
[10] = Aqueous solubility of compound in PBS buffer at pH 6.5 incubated for 24 hrs by HPLC-UV analysis; type: physicochemical; details: pH 6.5, 24 h

Compound	Papp [1]	further results
Cc1ccccc1Oc1cc(-n2c(=O)cc(C(F)(F)F)[nH]c2=O)c(C)cc1C#N	48 nm/s	–
N#Cc1cc(F)c(-n2c(=O)cc(C(F)(F)F)[nH]c2=O)cc1Oc1ccccc1	–	pIC50 [2]: 4.87
COc1cc(Cl)c(Oc2ccccc2C)cc1-n1c(=O)cc(C(F)(F)F)[nH]c1=O	199 nm/s	–
CNC(=O)c1ccn2c(-n3c(=O)cc(C(F)(F)F)[nH]c3=O)c(-c3ccccn3)nc2c1	–	pIC50 [3]: 6.07
COc1cc(C#N)c(Oc2ccccc2C)cc1-n1c(=O)cc(C(F)(F)F)[nH]c1=O	23 nm/s	–
CCCc1cc(=O)n2nc(NCc3c(F)cc(Cl)cc3F)c(C#N)c2[nH]1	–	pIC50 [4]: 3.25
Cc1ccccc1Oc1cc(-n2c(=O)cc(C(F)(F)F)[nH]c2=O)c(F)cc1C#N	–	pIC50 [2]: 4.88
COc1cc(OC)c(-n2c(=O)cc(C(F)(F)F)[nH]c2=O)cc1Cl	–	pIC50 [3]: 5.48; pIC50 [2]: 4.70
Cc1ccccc1Oc1cc(-n2c(=O)cc(C(F)(F)F)[nH]c2=O)c2ccccc2c1 [BAY-771]	275 nm/s	logD [5]: 2.2; CLhep predicted at […], 1 µM [6]: 41.7 mL/min/kg; Papp [7]: 171 nm/s; Fh at 1 h [8]: 40%; CLhep predicted [9]: 13.2 mL/min/kg; solubility [10]: > 412 mg/L

Second part, led by results:

Papp [1]	Compound	further results
30 nm/s	COc1cc(C#N)c(Oc2ccccc2C)cc1-n1c(=O)cc(C(F)(F)Cl)[nH]c1=O	–
33 nm/s	COc1cc(C#N)c(Oc2ccccc2C)cc1-n1c(=O)cc(C(F)(F)C(F)(F)F)[nH]c1=O	–
11 nm/s	COc1cc(C#N)c(Oc2ccccc2C)cc1-n1c(=O)cc(C(N)=O)[nH]c1=O	–
284 nm/s	COc1cc(C#N)c(Oc2ccccc2C)cc1-n1c(=O)cc(-c2ccccc2)[nH]c1=O	–
71 nm/s	COc1cc(C#N)c(Oc2ccccc2C)cc1-n1c(=O)cc(Br)[nH]c1=O	–
329 nm/s	COc1cc(C#N)c(Oc2ccccc2C)cc1-n1c(=O)cc(C(F)(F)c2ccccc2)[nH]c1=O	–
29 nm/s	COc1cc(C#N)c(Oc2ccccc2C)cc1-n1c(=O)cc(S(C)(=O)=O)[nH]c1=O	–
0.5 nm/s	COc1cc(C#N)c(Oc2ccccc2C)cc1-n1c(=O)cc(S(=O)(=O)c2ccccc2)[nH]c1=O	–

From ChEMBL document CHEMBL5214979 (J Med Chem, 2022)
